What was measured:
Rat [1] = test: concentration in plasma after dosing; conditions: 0.5 h; dosed: 2-Methyltetrahydrofuran; 40 mg/kg; iv; Female; Harlan Sprague Dawley
Rat [2] = test: concentration in brain after dosing; conditions: 7 min; dosed: 2-Methyltetrahydrofuran; 40 mg/kg; iv; Male; Harlan Sprague Dawley
Rat [3] = test: concentration in plasma after dosing; conditions: 0.75 h; dosed: 2-Methyltetrahydrofuran; 40 mg/kg; iv; Male; Harlan Sprague Dawley
Rat [4] = test: concentration in brain after dosing; conditions: 4 h; dosed: 2-Methyltetrahydrofuran; 40 mg/kg; iv; Female; Harlan Sprague Dawley
Rat [5] = test: concentration in plasma after dosing; conditions: 0.25 h; dosed: 678-39-7; 12 mg/kg; iv; Male; F344
Rat [6] = test: concentration in kidney after dosing; conditions: 12 h; dosed: Fluorotelomer alcohol 8+2; 24 mg/kg; oral; Male; Harlan Sprague Dawley
Rat [7] = test: concentration in plasma after dosing; conditions: dosed: 678-39-7, 40 mg/kg, iv, Male, F344
Rat [8] = test: concentration in liver after dosing; conditions: 12 h; dosed: Fluorotelomer alcohol 8+2; 80 mg/kg; oral; Female; Harlan Sprague Dawley
Rat [9] = test: concentration in plasma after dosing; conditions: dosed: 678-39-7, 12 mg/kg, iv, Male, F344
Rat [10] = test: concentration in brain after dosing; conditions: 3 h; dosed: Fluorotelomer alcohol 8+2; 24 mg/kg; oral; Male; Harlan Sprague Dawley
Rat [11] = test: concentration in liver after dosing; conditions: 3 h; dosed: Fluorotelomer alcohol 8+2; 80 mg/kg; oral; Female; Harlan Sprague Dawley
Rat [12] = test: concentration in kidney after dosing; conditions: 3 h; dosed: Perfluorohexanoic Acid; 80 mg/kg; oral; Female; Harlan Sprague Dawley
Rat [13] = test: concentration in kidney after dosing; conditions: 1 h; dosed: Perfluorohexanoic Acid; 80 mg/kg; oral; Female; Harlan Sprague Dawley
Rat [14] = test: concentration in liver after dosing; conditions: 12 h; dosed: Perfluorohexanoic Acid; 80 mg/kg; oral; Male; Harlan Sprague Dawley
Rat [15] = test: concentration in plasma after dosing; conditions: dosed: Perfluorohexanoic Acid, 40 mg/kg, oral, Male, Harlan Sprague Dawley
Rat [16] = test: concentration in plasma after dosing; conditions: dosed: Perfluorohexanoic Acid, 40 mg/kg, iv, Male, F344
Rat [17] = test: concentration in brain after dosing; conditions: 1 h; dosed: Perfluorohexanoic Acid; 80 mg/kg; oral; Female; Harlan Sprague Dawley
Rat [18] = test: concentration in kidney after dosing; conditions: 1 h; dosed: Perfluorohexanoic Acid; 80 mg/kg; oral; Male; Harlan Sprague Dawley
Rat [19] = test: concentration in kidney after dosing; conditions: 6 h; dosed: Perfluorooctane Sulfonate; 20 mg/kg; oral; Male; Harlan Sprague Dawley
Rat [20] = test: concentration in plasma after dosing; conditions: dosed: Perfluorooctane Sulfonate, 2 mg/kg, iv, Female, F344
Rat [21] = test: concentration in brain after dosing; conditions: 24 h; dosed: Perfluorooctane Sulfonate; 2 mg/kg; oral; Female; Harlan Sprague Dawley
Rat [22] = test: concentration in liver after dosing; conditions: 864 h; dosed: Perfluorooctane Sulfonate; 20 mg/kg; oral; Male; Harlan Sprague Dawley
Rat [23] = test: concentration in plasma after dosing; conditions: dosed: Perfluorooctane Sulfonate, 2 mg/kg, iv, Female, F344; remark: listed apart in the source
Rat [24] = test: concentration in kidney after dosing; conditions: 1848 h; dosed: Perfluorooctane Sulfonate; 20 mg/kg; oral; Female; F344
Rat [25] = test: concentration in kidney after dosing; conditions: 1848 h; dosed: Perfluorooctane Sulfonate; 2 mg/kg; oral; Female; Harlan Sprague Dawley
Rat [26] = test: concentration in liver after dosing; conditions: 24 h; dosed: Perfluorooctane Sulfonate; 2 mg/kg; oral; Female; Harlan Sprague Dawley
Rat [27] = test: concentration in plasma after dosing; conditions: 1848 h; dosed: Perfluorooctane Sulfonate; 2 mg/kg; oral; Female; Harlan Sprague Dawley
Rat [28] = test: concentration in plasma after dosing; conditions: 3360 h; dosed: Perfluorooctane Sulfonate; 2 mg/kg; oral; Female; Harlan Sprague Dawley
Rat [29] = test: concentration in liver after dosing; conditions: 24 h; dosed: Perfluorooctane Sulfonate; 2 mg/kg; oral; Female; Harlan Sprague Dawley; remark: listed apart in the source
Rat [30] = test: concentration in liver after dosing; conditions: 24 h; dosed: Perfluorooctane Sulfonate; 20 mg/kg; oral; Female; F344
Rat [31] = test: concentration in kidney after dosing; conditions: 3360 h; dosed: Perfluorooctane Sulfonate; 20 mg/kg; oral; Male; Harlan Sprague Dawley
Rat [32] = test: concentration in brain after dosing; conditions: 1848 h; dosed: Perfluorooctane Sulfonate; 20 mg/kg; oral; Male; Harlan Sprague Dawley
Rat [33] = test: concentration in kidney after dosing; conditions: 1848 h; dosed: Perfluorooctane Sulfonate; 2 mg/kg; oral; Female; Harlan Sprague Dawley; remark: listed apart in the source
Rat [34] = test: concentration in kidney after dosing; conditions: 24 h; dosed: Perfluorooctane Sulfonate; 2 mg/kg; oral; Female; Harlan Sprague Dawley
Rat [35] = test: concentration in liver after dosing; conditions: 864 h; dosed: Perfluorooctane Sulfonate; 2 mg/kg; oral; Female; Harlan Sprague Dawley
Rat [36] = test: concentration in plasma after dosing; conditions: dosed: Perfluorooctane Sulfonate, 2 mg/kg, oral, Female, Harlan Sprague Dawley
Rat [37] = test: concentration in plasma after dosing; conditions: 5 min; dosed: Gemfibrozil; 4.29 mg/kg; oral; Male; Sprague-Dawley
Rat [38] = test: concentration in plasma after dosing; conditions: 1 h; dosed: Gemfibrozil; 100 mg/kg; oral; Male; Sprague-Dawley
Rat [39] = test: concentration in plasma after dosing; conditions: 0.5 h; dosed: Gemfibrozil; 100 mg/kg; oral; Male; Sprague-Dawley

CC1CCCO1 (centres undefined) [2-Methyltetrahydrofuran]
Conditions	concentration in brain [ng/mL]	concentration in plasma [ng/mL]
Rat [1]	–	28500
Rat [2]	29000	–
Rat [3]	–	29200
Rat [4]	185	–

O=C(O)CCC(F)(F)C(F)(F)C(F)(F)C(F)(F)C(F)(F)C(F)(F)C(F)(F)F [Fluorotelomer acid 7+3]
Conditions	concentration in brain [ng/g]	concentration in kidney [ng/g]	concentration in liver [ng/g]	concentration in plasma [ng/mL]
Rat [5]	–	–	–	51.7
Rat [6]	–	573	–	–
Rat [8]	–	–	5690	–
Rat [10]	463	–	–	–
Rat [11]	–	–	10700	–

concentration in plasma [ng/mL]
Conditions	0.25 h	0.5 h	6 h	9 h
Rat [7]	84.2	–	820	–
Rat [9]	–	167	–	164

O=C(O)C(F)(F)C(F)(F)C(F)(F)C(F)(F)C(F)(F)F [Perfluorohexanoic Acid]
Conditions	concentration in brain [ng/g]	concentration in kidney [ng/g]	concentration in liver [ng/g]
Rat [12]	–	71400	–
Rat [13]	–	76600	–
Rat [14]	–	–	1910
Rat [17]	1340	–	–
Rat [18]	–	79900	–

concentration in plasma [ng/mL]
Conditions	0.75 h	3 h	5 min	12 h
Rat [15]	46400	–	–	6500
Rat [16]	–	34.9	18500	–

O=S(=O)([O-])C(F)(F)C(F)(F)C(F)(F)C(F)(F)C(F)(F)C(F)(F)C(F)(F)C(F)(F)F [Perfluorooctane Sulfonate]
Conditions	concentration in brain [ng/g]	concentration in kidney [ng/g]	concentration in liver [ng/g]	concentration in plasma [ng/mL]
Rat [19]	–	72300	–	–
Rat [21]	800	–	–	–
Rat [22]	–	–	98700	–
Rat [24]	–	22700	–	–
Rat [25]	–	2450	–	–
Rat [26]	–	–	29400	–
Rat [27]	–	–	–	966
Rat [28]	–	–	–	428
Rat [29]	–	–	22900	–
Rat [30]	–	–	167000	–
Rat [31]	–	10400	–	–
Rat [32]	2130	–	–	–
Rat [33]	–	980	–	–
Rat [34]	–	5720	–	–
Rat [35]	–	–	8950	–

Conditions	concentration in plasma [ng/mL]
Rat [20], 5 min	5510
Rat [20], 24 h	4250
Rat [20], 1704 h	232
Rat [23], 1 h	4240
Rat [23], 192 h	4100
Rat [23], 2376 h	105
Rat [36], 5 min	27.5
Rat [36], 192 h	3830
Rat [36], 1200 h	1210

Cc1ccc(C)c(OCCCC(C)(C)C(=O)O)c1 [Gemfibrozil]
Conditions	concentration in plasma [ng/mL]
Rat [37]	893
Rat [38]	57500
Rat [39]	33900
